The record followed here is ChEMBL document CHEMBL3856213, “neo-Clerodane diterpenoids from Scutellaria barbata mediated inhibition of P-glycoprotein in MCF-7/ADR cells” (Eur J Med Chem, 2016).

Activity calls are given as the source filed them. No cut-off for these calls is given here.

A short description of assay [1]: Cytotoxicity against human MCF7 cells assessed as inhibition of cell survival rate at 50 uM after 48 hrs by MTT assay relative to control. Type of assay: functional. Particulars: MCF7, 48 h. For orientation: Tetrazolium dyes change colour on reduction, which living cells bring about.
For assay [2], the system named is NCI/ADR-RES. Nature of the assay: Inhibition of P-gp in human MCF7/ADR cells assessed as potentiation of adriamycin-induced cytotoxic activity at 20 uM after 48 hrs by MTT assay relative to control. Type of assay: cell-based.
Assay [3] relates to NCI/ADR-RES. Nature of the assay: Inhibition of P-gp in human MCF7/ADR cells assessed as increase in intracellular adriamycin accumulation at 10 uM after 3 hrs by flow cytometry relative to control. Type of assay: cell-based. A general note: A flow cytometer gives signals particle by particle.
Assay [4] concerns NCI/ADR-RES. As to the kind of experiment: Inhibition of P-gp in human MCF7/ADR cells assessed as increase in intracellular adriamycin accumulation at 20 uM after 3 hrs by flow cytometry. Type of assay: cell-based.
Assay [5] relates to NCI/ADR-RES. As to the kind of experiment: Inhibition of P-gp in human MCF7/ADR cells assessed as potentiation of adriamycin-induced cell death by measuring dead cell levels at 20 uM after 48 hrs by 7-AAD staining-based flow cytometry (reference value: 8.1%). More on the design: scale not given: the % may be the effect or the level left.
Assay [6] relates to NCI/ADR-RES. As to the kind of experiment: Inhibition of P-gp in human MCF7/ADR cells assessed as increase in intracellular rhodamine123 accumulation at 10 to 20 uM incubated for 4 hrs in dark condition by flow cytometry. Type of assay: cell-based.
The test system of assay [7] is NCI/ADR-RES. As to the kind of experiment: Inhibition of P-gp in human MCF7/ADR cells assessed as potentiation of adriamycin-induced cell death by measuring dead cell levels at 10 uM after 48 hrs by 7-AAD staining-based flow cytometry. More on the design: scale not given: the % may be the effect or the level left.
Assay [8] deals with NCI/ADR-RES. Nature of the assay: Inhibition of P-gp in human MCF7/ADR cells assessed as increase in intracellular adriamycin accumulation at 10 uM after 3 hrs by flow cytometry relative to verapamil. It counts as cell-based.
The subject of assay [9] is NCI/ADR-RES. As to the kind of experiment: Inhibition of P-gp in human MCF7/ADR cells assessed as increase in intracellular adriamycin accumulation at 20 uM after 3 hrs by flow cytometry relative to verapamil. Type of assay: cell-based.
Assay [10] has as its system NCI/ADR-RES. Nature of the assay: Inhibition of P-gp in human MCF7/ADR cells assessed as increase in intracellular adriamycin accumulation at 10 to 20 uM after 4 hrs by fluorescence microscopic analysis. Type of assay: cell-based.
Assay [11] in a line: Downregulation of P-gp expression in human MCF7/ADR cells at 10 uM after 36 hrs by Western blot method relative to control. Type of assay: functional, cell-based. The conditions noted are these: NCI/ADR-RES. For orientation: A western blot detects proteins with antibodies after separation by electrophoresis.
The nature of assay [12]: Downregulation of P-gp expression in human MCF7/ADR cells at 20 uM after 36 hrs by Western blot method relative to control. It counts as functional, cell-based. The conditions noted are these: NCI/ADR-RES.

In general, inhibition refers to the percentage by which the read-out fell short of the control. As to `CC1=CC[C@@H](OC(=O)c2cccnc2)[C@H]2[C@@]1(C)[C@@H](OC(=O)c1cccnc1)[C@H](OC(=O)c1ccccc1)[C@]1(C)O[C@]3(CC[C@]21C)COC(=O)C3`, in [1], the inhibition at 50 µM was 13.6%. Besides, the fold change (FC) in assay [2] was found to be 45.3; in assay [3], 2.89; in assay [8], 1.5; in assay [9], 1.8. Also, the inhibition entry in [4], in assay [6] and in assay [10] was “Active” in each case. Also, the Activity is 89.2% in [5], 74.7% in assay [7], 27% in [11] and 32% in assay [12].
